Experimental data as given in paper PMC11208742, “5,7,4′‐Trimethoxyflavone triggers cancer cell PD‐L1 ubiquitin–proteasome degradation and facilitates antitumor immunity by targeting HRD1” (MedComm, 2024).

Target: T1, HRD1 (HMG-CoA reductase degradation protein 1) (Homo sapiens, UniProt Q86TM6)
T1 construct: gene SYVN1; GFP-tagged wild-type HRD1 expressed in 293T cells, cell lysate (MST); endogenous untagged HRD1 in RKO cell lysate (CETSA)
Test: microscale thermophoresis, GFP-HRD1
Format: binding

T1 sequence (Q86TM6 whole entry): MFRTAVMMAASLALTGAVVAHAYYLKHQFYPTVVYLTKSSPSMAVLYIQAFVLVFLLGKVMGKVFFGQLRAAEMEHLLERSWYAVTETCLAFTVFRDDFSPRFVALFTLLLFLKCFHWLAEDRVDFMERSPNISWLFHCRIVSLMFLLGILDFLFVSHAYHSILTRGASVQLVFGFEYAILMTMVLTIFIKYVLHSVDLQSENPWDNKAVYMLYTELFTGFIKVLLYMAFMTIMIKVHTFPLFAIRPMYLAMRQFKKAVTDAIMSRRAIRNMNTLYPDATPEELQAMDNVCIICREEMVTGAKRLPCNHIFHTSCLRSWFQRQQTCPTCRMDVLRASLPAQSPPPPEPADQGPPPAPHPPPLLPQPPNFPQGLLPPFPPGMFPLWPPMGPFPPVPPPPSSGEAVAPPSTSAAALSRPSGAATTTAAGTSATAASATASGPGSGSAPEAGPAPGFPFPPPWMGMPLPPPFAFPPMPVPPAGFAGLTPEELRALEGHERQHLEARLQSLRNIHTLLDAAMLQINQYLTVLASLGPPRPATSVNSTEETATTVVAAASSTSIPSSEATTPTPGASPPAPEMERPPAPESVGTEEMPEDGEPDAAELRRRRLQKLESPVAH

Kd: 8.02 µM
Structure (SMILES): COc1ccc(-c2cc(=O)c3c(OC)cc(OC)cc3o2)cc1 [TF]
